Data from patent US10168342B2, “Lipid probes and uses thereof” (THE SCRIPPS RESEARCH INSTITUTE, priority 2015, dated 2019).

What was measured:
Assay type in all cases: cell-based
[1] = biological target: T1, lipid-binding proteins in Neuro2a cells (Mus musculus, UniProt Q8VCD6); assay: SILAC MS mapping of lipid probe targets (probe-versus-No UV, probe-versus-probe) in Neuro2a cells; conditions: A-DA probe, No UV control, target protein Reep2 (Q8VCD6)
T1 construct: endogenous in cells; host or cells: Neuro2a
T1 sequence (Q8VCD6 whole entry): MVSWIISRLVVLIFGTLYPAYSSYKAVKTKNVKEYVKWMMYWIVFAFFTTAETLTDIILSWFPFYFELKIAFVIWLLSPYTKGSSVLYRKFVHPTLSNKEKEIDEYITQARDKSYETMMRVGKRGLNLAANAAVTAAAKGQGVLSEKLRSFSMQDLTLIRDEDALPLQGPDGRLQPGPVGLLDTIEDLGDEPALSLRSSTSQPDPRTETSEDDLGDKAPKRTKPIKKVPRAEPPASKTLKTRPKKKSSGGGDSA

[2] = biological target: T2, lipid-binding proteins in A549 cells (Homo sapiens, UniProt Q8N5I4); assay: SILAC MS mapping of UV-dependent lipid probe targets in A549 cells; conditions: A-DA probe vs NoUV
T2 construct: endogenous in cells; host or cells: A549 (PMA-stimulated for the PTGS2 experiments)
T2 sequence (Q8N5I4 whole entry): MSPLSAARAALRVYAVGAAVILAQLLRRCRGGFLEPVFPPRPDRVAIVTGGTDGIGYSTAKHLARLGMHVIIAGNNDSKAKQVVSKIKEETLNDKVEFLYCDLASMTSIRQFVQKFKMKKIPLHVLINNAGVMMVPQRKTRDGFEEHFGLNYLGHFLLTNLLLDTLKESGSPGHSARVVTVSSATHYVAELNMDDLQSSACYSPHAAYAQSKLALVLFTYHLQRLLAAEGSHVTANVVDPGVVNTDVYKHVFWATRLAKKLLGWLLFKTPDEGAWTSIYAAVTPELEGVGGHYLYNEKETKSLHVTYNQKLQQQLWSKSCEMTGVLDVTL

[3] = biological target: T3, lipid-binding proteins in A549 cells (Homo sapiens, UniProt Q9H6K4); assay: as above; conditions: A-DA probe vs NoUV
T3 construct: endogenous in cells; host or cells: A549 (PMA-stimulated for the PTGS2 experiments)

[4] = biological target: T4, lipid-binding proteins in A549 cells (Homo sapiens, UniProt Q53GQ0); assay: as above; conditions: A-DA probe vs NoUV
T4 construct: endogenous in cells; host or cells: A549 (PMA-stimulated for the PTGS2 experiments)

[5] = biological target: T5, lipid-binding proteins in A549 cells (Homo sapiens, UniProt P07602); assay: as above; conditions: A-DA probe vs NoUV
T5 construct: endogenous in cells; host or cells: A549 (PMA-stimulated for the PTGS2 experiments)

[6] = biological target: T6, lipid-binding proteins in A549 cells (Homo sapiens, UniProt P50402); assay: as above; conditions: A-DA probe vs NoUV
T6 construct: endogenous in cells; host or cells: A549 (PMA-stimulated for the PTGS2 experiments)
T6 sequence (P50402 whole entry): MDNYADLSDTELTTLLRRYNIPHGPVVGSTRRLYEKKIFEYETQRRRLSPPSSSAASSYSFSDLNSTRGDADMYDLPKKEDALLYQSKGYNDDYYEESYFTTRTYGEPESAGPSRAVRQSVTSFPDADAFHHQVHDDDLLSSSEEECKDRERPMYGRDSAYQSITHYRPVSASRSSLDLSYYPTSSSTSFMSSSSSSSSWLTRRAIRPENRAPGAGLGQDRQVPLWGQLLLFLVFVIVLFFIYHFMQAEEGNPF

[7] = biological target: T7, lipid-binding proteins in A549 cells (Homo sapiens, UniProt Q9UH99); assay: as above; conditions: protein SUN2 (Q9UH99), A-DA probe
T7 construct: endogenous in cells; host or cells: A549 (PMA-stimulated for the PTGS2 experiments)

[8] = biological target: T8, lipid-binding proteins in A549 cells (Homo sapiens, UniProt Q6P1A2); assay: as above; conditions: A-DA probe vs NoUV
T8 construct: endogenous in cells; host or cells: A549 (PMA-stimulated for the PTGS2 experiments)

[9] = biological target: T9, lipid-binding proteins in A549 cells (Homo sapiens, UniProt Q9BTX1); assay: as above; conditions: A-DA probe vs NoUV
T9 construct: endogenous in cells; host or cells: A549 (PMA-stimulated for the PTGS2 experiments)
T9 sequence (Q9BTX1 whole entry): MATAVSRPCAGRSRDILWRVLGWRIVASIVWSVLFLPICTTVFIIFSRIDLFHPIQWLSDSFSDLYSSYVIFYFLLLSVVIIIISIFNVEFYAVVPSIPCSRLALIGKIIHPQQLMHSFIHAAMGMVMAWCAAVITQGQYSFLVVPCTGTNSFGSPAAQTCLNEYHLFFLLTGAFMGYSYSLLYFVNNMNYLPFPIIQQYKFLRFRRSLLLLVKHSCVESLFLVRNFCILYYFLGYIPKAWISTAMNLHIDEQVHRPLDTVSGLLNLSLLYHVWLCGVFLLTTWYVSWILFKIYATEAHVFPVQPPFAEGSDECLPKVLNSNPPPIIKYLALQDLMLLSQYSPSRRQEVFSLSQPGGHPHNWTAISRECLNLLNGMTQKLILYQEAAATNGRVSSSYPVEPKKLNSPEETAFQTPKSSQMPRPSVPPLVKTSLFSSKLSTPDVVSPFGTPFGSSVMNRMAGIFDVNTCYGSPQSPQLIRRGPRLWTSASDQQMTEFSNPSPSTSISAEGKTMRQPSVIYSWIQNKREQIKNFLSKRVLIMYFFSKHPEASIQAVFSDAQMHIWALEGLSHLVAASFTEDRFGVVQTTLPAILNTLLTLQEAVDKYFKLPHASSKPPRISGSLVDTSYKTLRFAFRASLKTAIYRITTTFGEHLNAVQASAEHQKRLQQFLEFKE

[10] = biological target: T10, lipid-binding proteins in A549 cells (Homo sapiens, UniProt Q99536); assay: as above; conditions: A-DA probe vs NoUV
T10 construct: endogenous in cells; host or cells: A549 (PMA-stimulated for the PTGS2 experiments)

[11] = biological target: T11, lipid-binding proteins in A549 cells (Homo sapiens, UniProt Q7Z2K6); assay: as above; conditions: A-DA probe vs NoUV
T11 construct: endogenous in cells; host or cells: A549 (PMA-stimulated for the PTGS2 experiments)
T11 sequence (Q7Z2K6 whole entry): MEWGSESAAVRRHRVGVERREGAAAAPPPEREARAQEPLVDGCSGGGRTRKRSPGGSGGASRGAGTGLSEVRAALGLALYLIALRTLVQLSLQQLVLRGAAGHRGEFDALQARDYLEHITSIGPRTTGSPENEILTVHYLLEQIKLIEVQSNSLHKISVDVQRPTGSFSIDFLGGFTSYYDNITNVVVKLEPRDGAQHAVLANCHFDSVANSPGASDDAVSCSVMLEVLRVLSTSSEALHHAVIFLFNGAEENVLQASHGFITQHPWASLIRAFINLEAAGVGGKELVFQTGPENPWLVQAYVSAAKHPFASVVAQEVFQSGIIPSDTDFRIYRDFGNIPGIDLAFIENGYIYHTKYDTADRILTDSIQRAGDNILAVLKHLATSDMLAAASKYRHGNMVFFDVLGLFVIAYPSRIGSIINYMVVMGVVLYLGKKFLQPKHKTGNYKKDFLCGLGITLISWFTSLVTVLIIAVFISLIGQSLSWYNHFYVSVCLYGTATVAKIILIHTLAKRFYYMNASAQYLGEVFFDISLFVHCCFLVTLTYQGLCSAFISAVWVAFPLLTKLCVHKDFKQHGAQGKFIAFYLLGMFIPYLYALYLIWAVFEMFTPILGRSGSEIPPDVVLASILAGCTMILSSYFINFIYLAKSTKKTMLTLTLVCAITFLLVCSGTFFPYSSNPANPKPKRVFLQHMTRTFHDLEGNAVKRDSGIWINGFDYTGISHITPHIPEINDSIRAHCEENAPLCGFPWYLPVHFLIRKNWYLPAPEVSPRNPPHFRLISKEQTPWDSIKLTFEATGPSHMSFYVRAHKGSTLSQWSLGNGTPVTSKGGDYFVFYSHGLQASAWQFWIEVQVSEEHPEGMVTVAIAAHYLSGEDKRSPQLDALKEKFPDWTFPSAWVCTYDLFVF

[12] = biological target: T12, lipid-binding proteins in A549 cells (Homo sapiens, UniProt P67812); assay: as above; conditions: A-DA probe vs NoUV
T12 construct: endogenous in cells; host or cells: A549 (PMA-stimulated for the PTGS2 experiments)
T12 sequence (P67812 whole entry): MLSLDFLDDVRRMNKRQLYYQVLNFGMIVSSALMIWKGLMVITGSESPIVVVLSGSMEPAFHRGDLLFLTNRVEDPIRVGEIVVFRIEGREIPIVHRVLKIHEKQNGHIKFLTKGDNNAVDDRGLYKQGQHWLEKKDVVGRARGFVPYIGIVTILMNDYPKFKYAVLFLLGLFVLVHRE

[13] = biological target: T13, lipid-binding proteins in A549 cells (Homo sapiens, UniProt Q9Y639); assay: as above; conditions: A-DA probe vs NoUV
T13 construct: endogenous in cells; host or cells: A549 (PMA-stimulated for the PTGS2 experiments)

[14] = biological target: T14, lipid-binding proteins in A549 cells (Homo sapiens, UniProt O95470); assay: as above; conditions: A-DA probe vs NoUV
T14 construct: endogenous in cells; host or cells: A549 (PMA-stimulated for the PTGS2 experiments)

[15] = biological target: T15, lipid-binding proteins in A549 cells (Homo sapiens, UniProt Q14534); assay: as above; conditions: A-DA probe vs NoUV
T15 construct: endogenous in cells; host or cells: A549 (PMA-stimulated for the PTGS2 experiments)

[16] = biological target: T16, lipid-binding proteins in A549 cells (Homo sapiens, UniProt Q96G23); assay: as above; conditions: A-DA probe vs NoUV
T16 construct: endogenous in cells; host or cells: A549 (PMA-stimulated for the PTGS2 experiments)

[17] = biological target: T17, lipid-binding proteins in A549 cells (Homo sapiens, UniProt Q5HYK3); assay: as above; conditions: A-DA probe vs NoUV
T17 construct: endogenous in cells; host or cells: A549 (PMA-stimulated for the PTGS2 experiments)

[18] = biological target: T18, lipid-binding proteins in A549 cells (Homo sapiens, UniProt O15173); assay: as above; conditions: A-DA probe vs NoUV
T18 construct: endogenous in cells; host or cells: A549 (PMA-stimulated for the PTGS2 experiments)

[19] = biological target: T19, lipid-binding proteins in A549 cells (Homo sapiens, UniProt P07093); assay: as above; conditions: protein SERPINE2 (P07093), A-DA probe
T19 construct: endogenous in cells; host or cells: A549 (PMA-stimulated for the PTGS2 experiments)
T19 sequence (P07093 20-398): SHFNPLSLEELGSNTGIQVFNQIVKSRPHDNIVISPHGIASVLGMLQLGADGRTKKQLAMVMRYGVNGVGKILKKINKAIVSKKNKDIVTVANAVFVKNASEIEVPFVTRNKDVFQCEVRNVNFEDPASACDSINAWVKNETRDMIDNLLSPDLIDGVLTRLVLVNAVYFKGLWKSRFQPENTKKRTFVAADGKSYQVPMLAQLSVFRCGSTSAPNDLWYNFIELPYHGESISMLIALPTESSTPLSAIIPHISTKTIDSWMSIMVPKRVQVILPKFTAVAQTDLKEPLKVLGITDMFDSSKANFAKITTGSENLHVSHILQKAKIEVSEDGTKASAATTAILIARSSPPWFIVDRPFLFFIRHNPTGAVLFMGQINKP

[20] = biological target: T20, lipid-binding proteins in A549 cells (Homo sapiens, UniProt Q96KC8); assay: as above; conditions: A-DA probe vs NoUV
T20 construct: endogenous in cells; host or cells: A549 (PMA-stimulated for the PTGS2 experiments)
T20 sequence (Q96KC8 48-554): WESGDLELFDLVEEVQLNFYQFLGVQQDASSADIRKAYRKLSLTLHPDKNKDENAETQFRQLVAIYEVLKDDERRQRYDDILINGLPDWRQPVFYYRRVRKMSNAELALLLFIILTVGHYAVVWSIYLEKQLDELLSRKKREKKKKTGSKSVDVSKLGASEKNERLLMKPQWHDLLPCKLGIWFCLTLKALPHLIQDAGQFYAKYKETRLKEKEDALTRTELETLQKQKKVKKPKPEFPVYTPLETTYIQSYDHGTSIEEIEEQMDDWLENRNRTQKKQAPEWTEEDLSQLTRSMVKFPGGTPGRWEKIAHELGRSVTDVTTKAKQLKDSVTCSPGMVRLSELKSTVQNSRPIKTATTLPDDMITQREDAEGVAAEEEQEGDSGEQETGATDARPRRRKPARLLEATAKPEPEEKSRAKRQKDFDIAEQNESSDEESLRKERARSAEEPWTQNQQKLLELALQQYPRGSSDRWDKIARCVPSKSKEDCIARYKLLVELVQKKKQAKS

[21] = biological target: T21, lipid-binding proteins in A549 cells (Homo sapiens, UniProt P35354); assay: as above
T21 construct: endogenous in cells; host or cells: A549 (PMA-stimulated for the PTGS2 experiments)
T21 sequence (P35354 18-604): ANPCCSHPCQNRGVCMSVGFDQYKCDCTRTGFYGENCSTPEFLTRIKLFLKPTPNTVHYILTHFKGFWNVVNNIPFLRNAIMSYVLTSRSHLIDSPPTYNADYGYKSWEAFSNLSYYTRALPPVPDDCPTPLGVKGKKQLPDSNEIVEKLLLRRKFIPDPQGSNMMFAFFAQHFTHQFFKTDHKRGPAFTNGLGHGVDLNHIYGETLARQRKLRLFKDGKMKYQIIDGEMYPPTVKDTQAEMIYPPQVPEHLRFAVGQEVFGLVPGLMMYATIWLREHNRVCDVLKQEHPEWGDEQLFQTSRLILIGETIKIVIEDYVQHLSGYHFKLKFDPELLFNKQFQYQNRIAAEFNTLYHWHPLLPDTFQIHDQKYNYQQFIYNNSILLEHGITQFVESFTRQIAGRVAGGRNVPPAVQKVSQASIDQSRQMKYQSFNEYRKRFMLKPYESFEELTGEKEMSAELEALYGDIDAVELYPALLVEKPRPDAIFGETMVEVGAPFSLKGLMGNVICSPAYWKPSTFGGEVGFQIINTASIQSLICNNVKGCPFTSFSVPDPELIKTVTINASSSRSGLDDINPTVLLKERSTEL

[22] = biological target: T22, lipid-binding proteins in A549 cells (Homo sapiens, UniProt O75911); assay: as above; conditions: A-DA probe vs NoUV
T22 construct: endogenous in cells; host or cells: A549 (PMA-stimulated for the PTGS2 experiments)

[23] = biological target: T23, lipid-binding proteins in A549 cells (Homo sapiens, UniProt Q15738); assay: as above; conditions: A-DA probe vs NoUV
T23 construct: endogenous in cells; host or cells: A549 (PMA-stimulated for the PTGS2 experiments)
T23 sequence (Q15738 whole entry): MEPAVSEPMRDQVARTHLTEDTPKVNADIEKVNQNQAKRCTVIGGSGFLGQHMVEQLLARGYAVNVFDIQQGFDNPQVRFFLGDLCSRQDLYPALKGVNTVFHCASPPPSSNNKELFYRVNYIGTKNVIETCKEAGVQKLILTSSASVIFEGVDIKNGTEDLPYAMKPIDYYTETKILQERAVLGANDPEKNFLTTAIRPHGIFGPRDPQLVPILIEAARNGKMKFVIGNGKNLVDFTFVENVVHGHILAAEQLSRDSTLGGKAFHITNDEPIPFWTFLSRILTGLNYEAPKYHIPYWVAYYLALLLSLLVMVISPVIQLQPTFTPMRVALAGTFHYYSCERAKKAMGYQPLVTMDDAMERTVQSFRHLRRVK

[24] = biological target: T24, lipid-binding proteins in A549 cells (Homo sapiens, UniProt Q86XL3); assay: as above; conditions: A-DA probe vs NoUV
T24 construct: endogenous in cells; host or cells: A549 (PMA-stimulated for the PTGS2 experiments)

[25] = biological target: T25, lipid-binding proteins in A549 cells (Homo sapiens, UniProt Q9HAW7); assay: as above; conditions: A-DA probe vs NoUV
T25 construct: endogenous in cells; host or cells: A549 (PMA-stimulated for the PTGS2 experiments)

[26] = biological target: T26, lipid-binding proteins in A549 cells (Homo sapiens, UniProt P45880); assay: as above; conditions: A-DA probe vs NoUV
T26 construct: endogenous in cells; host or cells: A549 (PMA-stimulated for the PTGS2 experiments)

[27] = biological target: T27, lipid-binding proteins in A549 cells (Homo sapiens, UniProt Q9NS69); assay: as above; conditions: A-DA probe vs NoUV
T27 construct: endogenous in cells; host or cells: A549 (PMA-stimulated for the PTGS2 experiments)
T27 sequence (Q9NS69 whole entry): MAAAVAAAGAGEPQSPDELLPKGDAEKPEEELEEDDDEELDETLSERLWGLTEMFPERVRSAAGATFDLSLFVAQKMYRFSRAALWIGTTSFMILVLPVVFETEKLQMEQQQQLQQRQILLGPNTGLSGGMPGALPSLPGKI

[28] = biological target: T28, lipid-binding proteins in A549 cells (Homo sapiens, UniProt Q8NF37); assay: as above; conditions: A-DA probe vs NoUV
T28 construct: endogenous in cells; host or cells: A549 (PMA-stimulated for the PTGS2 experiments)

[29] = biological target: T29, lipid-binding proteins in A549 cells (Homo sapiens, UniProt Q9NX47); assay: as above; conditions: A-DA probe vs NoUV
T29 construct: endogenous in cells; host or cells: A549 (PMA-stimulated for the PTGS2 experiments)

[30] = biological target: T30, lipid-binding proteins in A549 cells (Homo sapiens, UniProt P21796); assay: as above; conditions: A-DA probe vs NoUV
T30 construct: endogenous in cells; host or cells: A549 (PMA-stimulated for the PTGS2 experiments)
T30 sequence (P21796 whole entry): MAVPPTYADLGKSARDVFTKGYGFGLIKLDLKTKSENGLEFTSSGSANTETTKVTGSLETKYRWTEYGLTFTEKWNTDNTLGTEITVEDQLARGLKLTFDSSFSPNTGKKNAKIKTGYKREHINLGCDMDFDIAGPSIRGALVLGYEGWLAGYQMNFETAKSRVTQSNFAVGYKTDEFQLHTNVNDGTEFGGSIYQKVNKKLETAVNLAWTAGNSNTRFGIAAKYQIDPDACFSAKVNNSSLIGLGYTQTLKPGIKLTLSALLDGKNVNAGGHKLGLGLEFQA

[31] = biological target: T31, lipid-binding proteins in A549 cells (Homo sapiens, UniProt P30519); assay: as above; conditions: A-DA probe vs NoUV
T31 construct: endogenous in cells; host or cells: A549 (PMA-stimulated for the PTGS2 experiments)

[32] = biological target: T32, lipid-binding proteins in A549 cells (Homo sapiens, UniProt Q8IZV5); assay: as above; conditions: A-DA probe vs NoUV
T32 construct: endogenous in cells; host or cells: A549 (PMA-stimulated for the PTGS2 experiments)

C#CCCC/C=C\C/C=C\C/C=C\C/C=C\CCCC(=O)NCCC1(C)N=N1 [A-DA, (5Z,8Z,11Z,14Z)-N-(2-(3-methyl-3H-diazirin-3-yl)ethyl)icosa-5,8,11,14-tetraen-19-ynamide]
4.1: SILAC ratio, MARCH5 (Q3KNM2) [29]
15.6: SILAC ratio, DHRS3 (O75911) [22]
4.5: SILAC ratio, No UV (A-DA probe versus No UV) [19]
18.4: SILAC ratio, TOMM22 (Q9CPQ3) [27]
16.9: SILAC ratio, NSDHL (Q15738) [23]
20.0: SILAC ratio, No UV (A-DA probe versus No UV), Reep2 (Q8VCD6) [1] | SILAC ratio, DHRSX (Q8N5I4) [2] | SILAC ratio, OPA3 (Q505D7) [3] | SILAC ratio, HSD17B12 (Q53GQ0) [4] | SILAC ratio, PSAP (P07602) [5] | SILAC ratio, No UV (A-DA probe versus No UV) [7] | SILAC ratio, LPCAT3 (Q6P1A2) [8] | SILAC ratio, TMEM48 (Q8VCB1) [9] | SILAC ratio, ERMP1 (Q7Z2K6) [11] | SILAC ratio, SEC11A (P67812) [12] | SILAC ratio, NPTN (Q9Y639) [13] | SILAC ratio, SQLE (Q14534) [15] | SILAC ratio, COQ5 (Q5HYK3) [17] | SILAC ratio, PGRMC2 (Q80UU9) [18] | SILAC ratio, DNAJC1 (Q96KC8) [20] | SILAC ratio, ANKLE2 (Q86XL3) [24] | SILAC ratio, UGT1A7 (Q9HAW7) [25] | SILAC ratio, LPCAT1 (Q8NF37) [28] | SILAC ratio, VDAC1 (P21796) [30] | SILAC ratio, HMOX2 (P30519) [31] | SILAC ratio, RDH10 (Q8IZV5) [32]
13.3: SILAC ratio, CERS2 (Q924Z4) [16]
7.8: SILAC ratio, VAT1 (Q99536) [10]
10.3: SILAC ratio, EMD (O08579) [6]
19.7: SILAC ratio, SGPL1 (O95470) [14] | SILAC ratio, VDAC2 (P45880) [26]
3.2: SILAC ratio of PTGS2, probe versus No UV ([21]; A-DA 5 μM) | SILAC ratio, PTGS2 (P35354) ([21]; A-DA probe vs NoUV)
